Data set [1] is described as follows: Cytotoxicity against ovarian cancer cells. Format: functional. The note with it: Cancer cell lines; read-out: ID50 (the source's name).
The next data set concerns Penicillium citrinum. Kind of data set: Antimicrobial activity against Penicillium citrinum. Format: functional.
For the next data set, the system named is Bacillus subtilis. As to the kind of experiment: Antimicrobial activity against Bacillus subtilis. The format is functional.
Another data set relates to Staphylococcus aureus. Kind of data set: Antimicrobial activity against Staphylococcus aureus. Format: functional.
A short description of data set [2]: Cytotoxicity against CHL cells. Format: cell-based, Cricetulus griseus. The note with it: chinese hamster, read-out: LD50 (the source's name).

As usually defined, the MIC is the lowest concentration that inhibits growth of the organism. Higher therefore signals a need for much substance.

Values after ≈ are worked out from the molar mass of the structure shown.

Turning to `C=C/C(C)=C/C[C@]1(C)[C@H]2C[C@@H](O)C=C3[C@H](OC(C)=O)O[C@@H](OC(C)=O)[C@@]32[C@H](OC(=O)/C=C/c2ccccc2)C[C@@H]1C`, the IC50 in data set [1] came out at 35 µg/mL (≈ 62 µM).

`CC(=O)O[C@@H]1[C@H](OC(C)=O)[C@@H](Oc2c(-c3ccc(O)cc3)oc3cc(O)cc(O)c3c2=O)O[C@H](C)[C@H]1OC(=O)/C=C/c1ccc(O)cc1`: in the data set with Penicillium citrinum, the MIC was less than 30 µg/mL.

As to `C=C(CC(=O)O)C(=O)C[C@@]1(C)[C@H](C)CC[C@@]2(C)C(C)=CCC[C@H]12`, the MIC came out at 25 µg/mL (≈ 78.5 µM) against Bacillus subtilis and 20 µg/mL (≈ 62.8 µM) with Staphylococcus aureus.

Consider `C=C/C(C)=C/C[C@@]1(C)[C@@H](C)[C@H](OC(=O)CCCCCCCCC)[C@@H](OC(C)=O)[C@]23C(=C[C@H](O)C[C@@]21C)[C@@H](OC(C)=O)O[C@@H]3OC(C)=O`, for which the CC50 in data set [2] came out at 770 nM.

In the case of `CN[C@@H]1[C@H](O[C@H]2[C@H](O[C@H]3[C@H](O)[C@@H](O)[C@H](N=C(N)N)[C@@H](O)[C@@H]3N=C(N)N)O[C@@H](C)[C@]2(O)C=O)O[C@@H](CO)[C@H](O)[C@H]1O.CN[C@@H]1[C@H](O[C@H]2[C@H](O[C@H]3[C@H](O)[C@@H](O)[C@H](N=C(N)N)[C@@H](O)[C@@H]3N=C(N)N)O[C@@H](C)[C@]2(O)C=O)O[C@@H](CO)[C@H](O)[C@H]1O.O=S(=O)(O)O.O=S(=O)(O)O.O=S(=O)(O)O` [STREPTOMYCIN SULFATE], the results for the minimum inhibitory concentration (MIC) in the data set on Bacillus subtilis and against Staphylococcus aureus were 12.5 µg/mL and 6.3 µg/mL, respectively.
